This note sets out measurements from patent US8609703B2, “Modulators of ATP-binding cassette transporters” (Vertex Pharmaceuticals Incorporated, priority 2005, dated 2013).

Molecules are shown by their SMILES. Bounds are passed on as bounds.

The experiment deals with T1, ΔF508-CFTR (Homo sapiens, UniProt P13569, DEL508-508).
T1 construct: expressed in transfected cells
As to the kind of experiment: EC50 and relative efficacy as modulators of ΔF508-CFTR (membrane potential optical assay). Format: cell-based. The following applies: for % Activity: relative efficacy. The text has this:
I) Membrane Potential Optical Methods for Assaying ΔF508-CFTR Modulation Properties of Compounds
The optical membrane potential assay utilized voltage-sensitive FRET sensors described by Gonzalez and Tsien (See., Gonzalez, J. E. and R. Y. Tsien (1995) “Voltage sensing by fluorescence resonance energy transfer in single cells” Biophys J 69(4): 1272-80, and Gonzalez, J. E. and R. Y. Tsien (1997) “Improved indicators of cell membrane potential that use fluorescence resonance energy transfer” Chem Biol 4(4): 269-77) in combination with instrumentation for measuring fluorescence changes such as the Voltage/Ion Probe Reader (VIPR) (See Gonzalez, J. E., K. Oades, et al. (1999) “Cell-based assays and instrumentation for screening ion-channel targets” Drug Discov Today 4(9): 431-439).
These voltage sensitive assays are based on the change in fluorescence resonant energy transfer (FRET) between the membrane-soluble, voltage-sensitive dye, DiSBAC2(3), and a fluorescent phospholipid, CC2-DMPE, which is attached to the outer leaflet of the plasma membrane and acts as a FRET donor. Changes in membrane potential (Vm) cause the negatively charged DiSBAC2(3) to redistribute across the plasma membrane and the amount of energy transfer from CC2-DMPE changes accordingly. The changes in fluorescence emission were monitored using VIPR which is an integrated liquid handler and fluorescent detector designed to conduct cell-based screens in 96- or 384-well microtiter plates.
To identify small molecules that correct the trafficking defect associated with ΔF508-CFTR; a single-addition HTS assay format was developed. The cells were incubated in serum-free medium for 16 hrs at 37° C. in the presence or absence (negative control) of test compound. As a positive control, cells plated in 384-well plates were incubated for 16 hrs at 27° C. to “temperature-correct” ΔF508-CFTR. The cells were subsequently rinsed 3× with Krebs Ringers solution and loaded with the voltage-sensitive dyes. To activate ΔF508-CFTR, 10 μM forskolin and the CFTR potentiator, genistein (20 μM), were added along with Cl^−-free medium to each well. The addition of Cl^−-free medium promoted Cl^− efflux in response to LF508-CFTR activation and the resulting membrane depolarization was optically monitored using the FRET-based voltage-sensor dyes.
To identify potentiators of ΔF508-CFTR, a double-addition HTS assay format was developed. During the first addition, a Cl^−-free medium with or without test compound was added to each well. After 22 sec, a second addition of Cl^−-free medium containing 2-10 μM forskolin was added to activate ΔF508-CFTR. The extracellular Cl^− concentration following both additions was 28 mM, which promoted Cl^− efflux in response to ΔF508-CFTR activation and the resulting membrane depolarization was optically monitored using the FRET-based voltage-sensor dyes.
NIH3T3 mouse fibroblasts stably expressing ΔF508-CFTR are used for optical measurements of membrane potential. The cells are maintained at 37° C. in 5% CO2 and 90% humidity in Dulbecco's modified Eagle's medium supplemented with 2 mM glutamine, 10% fetal bovine serum, 1×NEAA, (3-ME, 1× pen/strep, and 25 mM HEPES in 175 cm^2 culture flasks. For all optical assays, the cells were seeded at 30,000/well in 384-well matrigel-coated plates and cultured for 2 hrs at 37° C. before culturing at 27° C. for 24 hrs. for the potentiator assay. For the correction assays, the cells are cultured at 27° C. or 37° C. with and without compounds for 16-24 hoursB) Electrophysiological Assays for assaying ΔF508-CFTR modulation properties of compounds
Compounds of the invention are useful as modulators of ATP binding cassette transporters. Table 3 below illustrates the EC50 and relative efficacy of certain embodiments in Table 1.

T1 sequence (P13569 with tags, fused parts or gaps DEL508-508): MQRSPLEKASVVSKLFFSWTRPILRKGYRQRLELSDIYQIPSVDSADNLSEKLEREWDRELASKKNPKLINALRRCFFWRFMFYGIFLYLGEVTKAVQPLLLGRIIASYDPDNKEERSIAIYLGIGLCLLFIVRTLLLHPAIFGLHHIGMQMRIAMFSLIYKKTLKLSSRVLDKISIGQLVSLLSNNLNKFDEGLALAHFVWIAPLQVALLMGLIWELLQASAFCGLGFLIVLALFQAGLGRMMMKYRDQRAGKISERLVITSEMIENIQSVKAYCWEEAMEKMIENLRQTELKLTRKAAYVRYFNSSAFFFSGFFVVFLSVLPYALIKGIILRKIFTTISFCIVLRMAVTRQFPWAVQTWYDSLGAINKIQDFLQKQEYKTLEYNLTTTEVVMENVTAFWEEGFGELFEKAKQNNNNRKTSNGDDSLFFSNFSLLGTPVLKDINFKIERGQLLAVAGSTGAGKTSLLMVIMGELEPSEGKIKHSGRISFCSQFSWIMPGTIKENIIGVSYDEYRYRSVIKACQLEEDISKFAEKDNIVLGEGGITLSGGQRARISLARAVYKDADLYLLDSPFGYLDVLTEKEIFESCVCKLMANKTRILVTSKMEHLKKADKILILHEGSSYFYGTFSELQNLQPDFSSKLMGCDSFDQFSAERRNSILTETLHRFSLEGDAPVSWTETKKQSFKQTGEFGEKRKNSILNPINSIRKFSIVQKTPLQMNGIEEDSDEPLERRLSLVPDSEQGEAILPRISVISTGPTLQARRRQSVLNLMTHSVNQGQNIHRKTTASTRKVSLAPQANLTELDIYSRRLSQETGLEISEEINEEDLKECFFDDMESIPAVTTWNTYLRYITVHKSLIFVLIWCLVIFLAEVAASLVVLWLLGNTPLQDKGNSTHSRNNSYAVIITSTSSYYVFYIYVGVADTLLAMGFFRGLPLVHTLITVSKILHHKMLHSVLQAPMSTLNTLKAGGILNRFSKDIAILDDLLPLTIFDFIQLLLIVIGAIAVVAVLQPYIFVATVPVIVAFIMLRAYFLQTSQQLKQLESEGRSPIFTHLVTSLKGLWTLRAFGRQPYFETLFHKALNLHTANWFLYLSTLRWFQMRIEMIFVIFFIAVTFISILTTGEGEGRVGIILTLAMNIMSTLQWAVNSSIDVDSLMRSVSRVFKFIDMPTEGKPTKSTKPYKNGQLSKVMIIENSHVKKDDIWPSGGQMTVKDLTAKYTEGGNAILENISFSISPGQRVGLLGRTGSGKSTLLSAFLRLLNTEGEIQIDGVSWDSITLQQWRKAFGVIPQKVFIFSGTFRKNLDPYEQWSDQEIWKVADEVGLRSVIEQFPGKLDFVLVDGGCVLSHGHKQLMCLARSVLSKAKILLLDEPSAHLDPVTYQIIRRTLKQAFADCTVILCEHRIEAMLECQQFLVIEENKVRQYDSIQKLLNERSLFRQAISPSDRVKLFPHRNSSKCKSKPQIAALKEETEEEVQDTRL

`CCc1ccccc1NC(=O)C(=O)c1c[nH]c2ccccc12` [Cmpd 3, N-(2-Ethyl-phenyl)-2-(1H-indol-3-yl)-2-oxo-acetamide]: the EC50 (usually the concentration at which the effect is half-maximal) was less than 1000 nM and the “% Activity” value is on record as “++ (“++” means between 25% to 100%)”.

On to `O=C(Nc1ccccc1CN1CCCC1)C(=O)c1c[nH]c2ccccc12` [Cmpd 18], for which the EC50 was 1000 to 5000 nM and the “% Activity” value is listed as “++ (“++” means between 25% to 100%)”.

Take `O=C(Nc1cccc(C(F)(F)F)n1)C(=O)c1c[nH]c2ccccc12` [Cmpd 10]: the EC50 is less than 1000 nM and the “% Activity” value is listed as “++ (“++” means between 25% to 100%)”.

Consider `Cc1ccc(C)n1-c1ccccc1NC(=O)C(=O)c1c[nH]c2ccccc12` [Cmpd 21], for which the EC50 fell in the range of 1000 to 5000 nM and the “% Activity” value is given as “++ (“++” means between 25% to 100%)”.

Turning to `CC(C)c1ccccc1NC(=O)C(=O)c1c[nH]c2ccccc12` [Cmpd 6], the EC50 was less than 1000 nM and the “% Activity” value was “++ (“++” means between 25% to 100%)”.

For `O=C(Nc1ccc2cc[nH]c2c1)C(=O)c1c[nH]c2ccccc12` [Cmpd 4], the EC50 was less than 1000 nM and the “% Activity” value is listed as “++ (“++” means between 25% to 100%)”.

`O=C(Nc1ccccc1OC(F)F)C(=O)c1c[nH]c2ccccc12` [Cmpd 22]: the EC50 is 1000 to 5000 nM and the “% Activity” value is given as “++ (“++” means between 25% to 100%)”.

Consider `CC(C)(C)c1ccc(NC(=O)C(=O)c2c[nH]c3ccccc23)cc1` [Cmpd 7], for which the EC50 was less than 1000 nM and the “% Activity” value is reported as “++ (“++” means between 25% to 100%)”.

As for `Cn1cc(C(=O)C(=O)Nc2ccccc2-c2ccccc2)c2ccccc21` [Cmpd 17], the EC50 is more than 5000 nM and the “% Activity” value is recorded as “+ (“+” means <25%)”.

With `CCCCc1ccccc1NC(=O)C(=O)c1c[nH]c2ccccc12` [Cmpd 13], the EC50 was less than 1000 nM and the “% Activity” value is on record as “++ (“++” means between 25% to 100%)”.

Take `O=C(Nc1ccccc1Oc1ccc(Cl)cc1Cl)C(=O)c1c[nH]c2ccccc12` [Cmpd 14]: the EC50 is less than 1000 nM and the “% Activity” value is “++ (“++” means between 25% to 100%)”.

For the compound `CCCc1ccccc1NC(=O)C(=O)c1c[nH]c2ccccc12` [Cmpd 5], the concentration giving a half-maximal response (EC50) is less than 1000 nM and the “% Activity” value was “++ (“++” means between 25% to 100%)”.

For the compound `CC(C)(C)c1cc(C(C)(C)C)c(NC(=O)C(=O)c2c[nH]c3ccccc23)cc1O` [Cmpd 24], the EC50 was less than 1000 nM and the “% Activity” value is “++ (“++” means between 25% to 100%)”.

Take `Nc1cc(NC(=O)C(=O)c2c[nH]c3ccccc23)cc(C(F)(F)F)c1` [Cmpd 19]: the EC50 lay in the range of 1000 to 5000 nM and the “% Activity” value is recorded as “++ (“++” means between 25% to 100%)”.

For the compound `C=C(C)c1ccccc1NC(=O)C(=O)c1c[nH]c2ccccc12` [Cmpd 12], the EC50 was less than 1000 nM and the “% Activity” value was “++ (“++” means between 25% to 100%)”.

For `O=C(Nc1ccccc1F)C(=O)c1c[nH]c2ccccc12` [Cmpd 23], the EC50 is less than 1000 nM and the “% Activity” value was “++ (“++” means between 25% to 100%)”.

On to `CN1Cc2c(NC(=O)C(=O)c3c[nH]c4ccccc34)cccc2C(c2ccccc2)C1` (stereo not shown) [Cmpd 20], for which the EC50 is less than 1000 nM and the “% Activity” value is “++ (“++” means between 25% to 100%)”.

As for `Cn1cc(C(=O)C(=O)Nc2ccccc2)c2ccccc21` [Cmpd 16], the EC50 is more than 5000 nM and the “% Activity” value was “++ (“++” means between 25% to 100%)”.

For `CC(C)(C)c1ccccc1NC(=O)C(=O)c1c[nH]c2ccccc12` [Cmpd 26], the concentration for a half-maximal effect (EC50) was less than 1000 nM and the “% Activity” value is recorded as “++ (“++” means between 25% to 100%)”.

Regarding `O=C(Nc1ccccc1CN1CCCCC1)C(=O)c1c[nH]c2ccccc12` [Cmpd 15], the EC50 is less than 1000 nM and the “% Activity” value is “++ (“++” means between 25% to 100%)”.

Take `Cc1ccccc1Oc1ccccc1NC(=O)C(=O)c1c[nH]c2ccccc12` [Cmpd 11]: the concentration for a half-maximal effect (EC50) is less than 1000 nM and the “% Activity” value is “++ (“++” means between 25% to 100%)”.

As for `O=C(Nc1ccc(F)cc1)C(=O)c1c[nH]c2ccc(Br)cc12` [Cmpd 1], the EC50 was less than 1000 nM and the “% Activity” value was “+ (“+” means <25%)”.

With `O=C(Nc1ccccc1)C(=O)c1c[nH]c2ccccc12` [Cmpd 9], the EC50 is 1000 to 5000 nM and the “% Activity” value is listed as “++ (“++” means between 25% to 100%)”.

Turning to `O=C(Nc1ccc(N2CCN(C(c3ccccc3)c3ccccc3)CC2)cc1)C(=O)c1c[nH]c2ccccc12` [Cmpd 2], the 50% effective concentration (EC50) lay within 1000 to 5000 nM and the “% Activity” value is “+ (“+” means <25%)”.

`CC(C)(C)c1cc2cc[nH]c2cc1NC(=O)C(=O)c1c[nH]c2ccccc12` [Cmpd 25]: the EC50 was less than 1000 nM and the “% Activity” value is on record as “++ (“++” means between 25% to 100%)”.

On to `O=C(Nc1ccccc1-c1ccccc1)C(=O)c1c[nH]c2ccccc12` [Cmpd 8], for which the EC50 is less than 1000 nM and the “% Activity” value is listed as “++ (“++” means between 25% to 100%)”.
